Experimental data reported in ChEMBL document CHEMBL1201862, “PubChem BioAssay data set” (2004).
Several values for one entry are separate records, joined by “and”; a condition that tells them apart may be missing. Identical values can stand only once.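 1) Cells in 96-well plates. 2) Compound, 48 h, 5 concentrations. 3) Linear interpolation between surrounding doses. 4) Unreached endpoint = highest concentration. Here, GI50 denotes the concentration required for 50% inhibition of growth.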 Activity calls are given as the source filed them. No stated cut-off is given here; in the data, active = GI50 up to about 1.1 µM and inactive = higher.

Key:
Assay in all cases: growth of human tumour cells (NCI), 48 h
KM-20L2 = system: KM-20L2
M19-MEL = system: M19-MEL
SNB-78 = system: SNB-78
BT-549 = system: BT-549
DMS-273 = system: DMS-273
LXFL 529 = system: LXFL 529
T47D = system: T47D
HOP-18 = system: HOP-18
RXF 631 = system: RXF 631

SMILES	GI50 (KM-20L2)	GI50 (M19-MEL)	GI50 (SNB-78)	GI50 (BT-549)	GI50 (DMS-273)	GI50 (T47D)	further results
CCCCCCCCCCSCC(CO)NC(=O)/C=C/c1c(C)[nH]c(=O)[nH]c1=O (centres undefined)	6.46 µM (inactive) and 3.37 µM (inactive)	1.33 µM (inactive) and 1.06 µM (active)	1.71 µM (inactive) and 1.9 µM (inactive)				
C[N+](C)(C)CC1CCc2ccccc2C1=O (centres undefined)	19.6 µM (inactive)	16 µM (inactive)	23.4 µM (inactive)	15.5 µM (inactive)	2.16 µM (inactive)	6.53 µM (inactive)	GI50 (LXFL 529): 2.57 µM (inactive)
CC(=O)C1(c2ccccc2)CCCN(C)CC1 (centres undefined)				> 100 µM (inactive)		> 100 µM (inactive)	
CO/C(=N\N=C(/c1ccccc1)C(F)(F)F)c1ccncc1				31.8 µM (inactive)		35.2 µM (inactive)	
c1ccc(N2N=C(c3ccco3)CC2c2ccco2)cc1 (centres undefined)	> 100 µM (inactive)	> 100 µM (inactive)	> 100 µM (inactive)		> 100 µM (inactive)		GI50 (LXFL 529): 64.1 µM (inactive)
Nc1ccc(/N=N/c2ccc(/C=C/c3ccc(/N=N/c4ccc(N)c5ccc(S(=O)(=O)O)cc45)cc3S(=O)(=O)O)c(S(=O)(=O)O)c2)c2cc(S(=O)(=O)O)ccc12	> 100 µM (inactive)	> 100 µM (inactive)	> 100 µM (inactive)		> 88.1 µM (inactive)		GI50 (HOP-18): > 100 µM (inactive)
Cc1ccc(Nc2nc(=S)[nH]c3[nH]ncc23)cc1				> 100 µM (inactive)		66.1 µM (inactive)	
CNC(=O)OCC1C2=C(C(=O)C(C)=C(N)C2=O)N2CC3C(N3C)C12OC (centres undefined)				31.8 µM (inactive)		21.9 µM (inactive)	
CCNC(=O)Nc1cccc(NC(=O)NCC)n1				> 100 µM (inactive)		> 100 µM (inactive)	
COc1cccc(-c2nccc3c(OCc4ccccc4)c(OC)c(OC)cc23)c1	> 100 µM (inactive)	> 100 µM (inactive)	63.1 µM (inactive)		27.2 µM (inactive)		GI50 (LXFL 529): 5.74 µM (inactive)
CN(C)CC(CC1=C(CC(CN(C)C)N(C)C)CCC1)N(C)C (centres undefined)	> 100 µM (inactive)	> 100 µM (inactive)			> 100 µM (inactive)		GI50 (HOP-18): > 100 µM (inactive)
Cc1occc1/C(S)=N\c1ccc(Cl)c(COC(C)(C)C)c1				17.6 µM (inactive)		12.1 µM (inactive)	
Cc1cc(Cc2c(C)c(C)c(Cc3cc(C)cc(C(C)(C)C)c3O)c(C)c2C)c(O)c(C(C)(C)C)c1				> 100 µM (inactive)		> 100 µM (inactive)	
C1=CC(=NN=P(c2ccccc2)(c2ccccc2)c2ccccc2)C=C1	> 100 µM (inactive)	> 100 µM (inactive)			> 100 µM (inactive)		GI50 (LXFL 529): > 100 µM (inactive)
C=C1C(=O)OCC2C(C(=O)O)=CC3C(C)C(C)=CC123 (centres undefined)	11.9 µM (inactive)	14.7 µM (inactive)	14.8 µM (inactive)		18.5 µM (inactive)		GI50 (HOP-18): 12.2 µM (inactive)
CCCCCCCC/C=C\CCCCCCCC(=O)O [OLEIC ACID]	> 500 µM (inactive)	101 µM (inactive)	68.7 µM (inactive)		110 µM (inactive)		GI50 (HOP-18): > 500 µM (inactive)
ClC1=C(Cc2ccccc2)Cc2ccc3c(c21)CCC3				31.1 µM (inactive)		18.5 µM (inactive)	
c1ccc(Nc2nnc(-c3ccccc3Nc3ccccc3-c3nnc(Nc4ccccc4)s3)s2)cc1				> 100 µM (inactive)			
Clc1ccc(C2ON=C(c3ccccc3)N2C23CC4CC(CC(C4)C2)C3)cc1 (centres undefined)				> 10 µM (inactive)		> 10 µM (inactive)	
COc1cc([C@@H]2c3cc4c(cc3[C@@H](NC(=O)c3cccc(N)c3)C3COC(=O)[C@@H]32)OCO4)cc(OC)c1O (some centres undefined)	2.97 µM (inactive)	3.41 µM (inactive)	3.92 µM (inactive)		0.117 µM (active)		GI50 (LXFL 529): 13.1 µM (inactive); GI50 (RXF 631): 0.412 µM (active)
CN(Cc1cnc2nc(N)nc(N)c2n1)c1ccc(C(=O)NC(CCC(=O)NCCC(P(=O)(O)O)P(=O)(O)O)C(=O)O)cc1 (centres undefined)				> 100 µM (inactive)		> 67.9 µM (inactive)	
NCCN1C(=O)c2ccccc2C1c1ccc(Cl)cc1 (centres undefined)				> 100 µM (inactive)		> 100 µM (inactive)	
C/C(=C\c1ccccc1)C(O)C(=O)c1nc2ccc(Cl)cc2nc1O (centres undefined)	> 100 µM (inactive)	> 100 µM (inactive)	> 100 µM (inactive)		> 100 µM (inactive)		GI50 (LXFL 529): 84.5 µM (inactive)
Cc1ccc(Cc2nn(C)c(=O)n2-n2cccc2)cc1				> 100 µM (inactive)		> 100 µM (inactive)	
N#CCCN(CCNc1ccccc1)C(=O)Nc1ccc(NC(=O)N(CCC#N)CCNc2ccccc2)cc1				> 38.5 µM (inactive)		> 58.1 µM (inactive)	
COc1cccc(-c2cc(O)c3cccnc3n2)c1				> 100 µM (inactive)		> 100 µM (inactive)	
N=C1N(c2ccccc2)C(=S)/C(=N/c2ccccc2)N1c1ccccc1						2.57 µM (inactive)	
Cc1ccc(/N=N/c2c(O)ccc3cc(S(=O)(=O)O)ccc23)cc1				> 100 µM (inactive)		66.8 µM (inactive)	
CCCn1cc2c(SC)nc(SC)nc2n1			> 100 µM (inactive)		> 100 µM (inactive)		GI50 (HOP-18): > 100 µM (inactive)
